{"source": "paper PMC11943016", "about": "“TBG096 Ameliorates Memory Deficiency in AD Mouse Model via Promoting Neurogenesis and Regulation of Hsc70/HK2/PKM2/LAMP2A Signaling Pathway” (International Journal of Molecular Sciences, 2025)", "key": {"[1]": {"test_system": "Hsc70, LAMP2A, APP, PKM2, and HK2 proteins", "assay": "Western blot of CMA proteins in PC12 cells (inhibitor experiment)", "assay_type": "cell-based", "settings": "TBG096 1 µM, 4 h, vs control", "protocol": "In the inhibitor experiment of NGF-mimic activity, approximately 5 × 10^4 PC12 cells were seeded into each well of a 24-well plate and incubated for 24 h. After that, the medium in each well was replaced with 500 μL of serum-free DMEM or the serum-free DMEM containing VER155008, the inhibitor of Hsc70 protein, incubated in a CO2 incubator for 30 min. Subsequently, 500 μL of serum-free DMEM containing different samples was added and cultured, respectively. The PC12 cells with neurite outgrowth were recorded after 48 h. For the Western blot analysis, the experiment included five groups, namely the control (C) group, the NGF (40 ng/mL) group, the TBG096 (1 µM) group, the VER155008 (3 µM) group, and the VER155008 (3 µM) + TBG096 (1 µM) group. Afterwards, approximately 2 × 10^6 cells per dish were seeded into ten 6 cm Petri dishes with 5 mL of DMEM medium and incubated for 24 h. After giving different treatments with samples, the cells continued to culture for 4 h. Protein extraction was conducted to prepare for the subsequent Western blot analysis.\nApproximately 50 mg of cerebral cortex from brain tissues was homogenized in RIPA lysis buffer containing 1% protease inhibitor and 1% phosphatase inhibitor. Then, the sample was centrifuged at 12,000 rpm at 4 °C for 10 min, and the supernatant was transferred to a new tube. Protein concentrations were determined using the BCA kit, and 30 µg of protein from each sample was denatured by heating in water at 100 °C for 10 min. Subsequently, approximately 30 µg of protein from each sample was loaded into each well. After conducting gel electrophoresis at 80 V for 15 min and then at 120 V for 60 min, the proteins were transferred to the polyvinylidene fluoride (PVDF) membrane for 90 min. Then, the PVDF membrane was blocked with 5% skimmed milk at room temperature for 60 min. The membrane was incubated with a diluted primary antibody at 4 °C overnight. After washing the membrane three times with TBST buffer (1× TBS buffer containing 0.05% (v/v) tween 20), it was incubated with the secondary antibody for 1 h at room temperature. Finally, the strip was developed using chemiluminescence ECL reagent, and the blot density was quantified with ImageJ (National Institutes of Health, Bethesda, MD, USA)."}, "[2]": {"test_system": "AMPK, p-AMPK, Hsc70, PKM2, HK2, LAMP2A, APP, Tau, p-Tau, Aβ oligomers", "assay": "Western blot of cerebral cortex of HFD-induced AD mice", "assay_type": "in vivo", "excerpt": "In experiments with the HFD-induced AD mouse model, a total of 60 Institute of Cancer Research (ICR) male mice aged 4 weeks from Zhejiang Academy of Medical Sciences (Hangzhou, China) were used for animal experiments (permit number: ZJU20230121). The animals were provided free access to a chow diet and water. […] The HFD and normal diet were alternated every two days to maintain freshness. Weekly measurements were taken for water intake, food intake, and body weight. In the eighteenth week, the mice underwent Y-maze and NOR tests. The Morris water maze test was conducted during the nineteenth week. After confirming the successful establishment of the AD model characterized by cognitive impairment, oral administration of treatments commenced. […] Each group had 10 mice.\nApproximately 50 mg of cerebral cortex from brain tissues was homogenized in RIPA lysis buffer containing 1% protease inhibitor and 1% phosphatase inhibitor. Then, the sample was centrifuged at 12,000 rpm at 4 °C for 10 min, and the supernatant was transferred to a new tube. Protein concentrations were determined using the BCA kit, and 30 µg of protein from each sample was denatured by heating in water at 100 °C for 10 min. […] Finally, the strip was developed using chemiluminescence ECL reagent, and the blot density was quantified with ImageJ (National Institutes of Health, Bethesda, MD, USA)."}, "[3]": {"assay": "Pharmacokinetic analysis of plasma in SD rats", "assay_type": "in vivo", "settings": "female, Sprague-Dawley, rat; for half-life: 14 mg/kg", "protocol": "In the pharmacokinetic analysis, a total of 23 female SD rats aged 8 weeks from Zhejiang Academy of Medical Sciences (Hangzhou, China) (permit number: ZJU20240191) were used. A total of 15 rats were randomly divided into the following groups: (i) control group, (ii) TBG096 (14 mg/kg) oral administration group, and (iii) TBG096 (14 mg/kg) intravenous administration group. TBG096 was administered orally (dissolved in soybean oil) or intravenously (dissolved in Milli-Q water containing 2% Tween 80 and 5% ethanol) at 14 mg/kg after 12 h of fasting. Then, the blood from the posterior ocular venous plexus of rats was taken at 5, 15, 30, 60, 90, 120, 180, and 240 min after administration. A total of eight rats were randomly divided into two groups for taking brain samples: (i) control group and (ii) TBG096 (14 mg/kg) oral administration group.\nThe collected blood was placed in a centrifuge tube (containing 20 µL heparin sodium solution) and centrifuged at 3000 rpm for 10 min to obtain a supernatant (plasma). Brain samples were collected after the oral administration of 14 mg/kg TBG096 and heart perfusion with PBS. Then, 10 µL of 10% formic acid and 10 µL of internal standard (10 ng/µL) were added to 200 µL of plasma (compound 2 was used as internal standard) or 0.2 g of brain sample (compound 4 was used as internal standard) and vortexed for 10 s and then left at −80 °C overnight. Next, 600 µL or 3 mL of extraction solvent (isopropanol) was added to plasma or brain samples, vortexed for 5 min, left at −30 °C for 2 h, and then centrifuged at 12,000 rpm for 15 min. Next, the upper organic phase was transferred to another tube, centrifuged, and concentrated to dryness. The residue was dissolved in 100 µL of mobile phase, vortexed for 0.5 min, and centrifuged at 12,000 rpm for 3 min, and the supernatant was then prepared for HPLC analysis (Supersil Phenyl 5 µm (4.6 × 200 mm), elution with MeCN/H2O containing 0.1% formic acid (plasma samples: 57% MeCN/H2O, brain samples: 56% MeCN/H2O) for 30 min, flow rate: 1 mL/min, sample size: 20 µL, detected at 284 nm) and HR ESI-TOF-MS analysis."}}, "note": "Read-outs that look alike come from different tables or passages of the source."}
{"smiles": "O=C(SCCCCCCSCCCC(F)(F)F)c1cccc(O)c1O", "note": "[TBG096]", "values": [{"measurement": "HK2 protein expression", "setting": "[1]", "value": "significantly decreased"}, {"measurement": "APP protein expression", "setting": "[1]; VER155008 3 µM", "value": "significantly decreased"}, {"measurement": "Hsc70 protein level", "setting": "[1]; VER155008 3 µM", "value": "significantly increased"}, {"measurement": "LAMP2A protein level", "setting": "[1]; VER155008 3 µM", "value": "significantly increased"}, {"measurement": "PKM2 protein expression", "setting": "[1]; VER155008 3 µM", "value": "significantly decreased"}, {"measurement": "phosphorylated AMPK/AMPK, LAMP2A, Hsc70, HK2 and PKM2 protein levels", "setting": "[2]", "value": "returned to normal"}, {"measurement": "APP, Tau, p-Tau, and Aβ oligomers protein expression", "setting": "[2]; vs HFD", "value": "significantly reduced"}, {"measurement": "bioavailability", "setting": "[3]; 14 mg/kg oral vs i.v., rats, read-out: absolute (oral) bioavailability", "value": 36, "unit": "%"}, {"measurement": "half-life", "setting": "[3]; iv, i.v. 14 mg/kg, rats, read-out: T1/2z", "value": 44.4, "unit": "min"}, {"measurement": "AUC(0-inf)", "setting": "[3]; iv, i.v. 14 mg/kg, rats", "value": 2520, "unit": "ng·h/mL"}, {"measurement": "AUC(0-t)", "setting": "[3]; iv, i.v. 14 mg/kg, rats", "value": 2470, "unit": "ng·h/mL"}, {"measurement": "Cmax", "setting": "[3]; iv, i.v. 14 mg/kg, rats", "value": 4700, "unit": "ng/mL"}, {"measurement": "Tmax", "setting": "[3]; iv, i.v. 14 mg/kg, rats", "value": 5, "unit": "min"}, {"measurement": "AUC(0-inf)", "setting": "[3]; oral (i.g.) 14 mg/kg, rats", "value": 905, "unit": "ng·h/mL"}, {"measurement": "AUC(0-t)", "setting": "[3]; oral (i.g.) 14 mg/kg, rats", "value": 707, "unit": "ng·h/mL"}, {"measurement": "Cmax", "setting": "[3]; oral (i.g.) 14 mg/kg, rats", "value": 700, "unit": "ng/mL"}, {"measurement": "Tmax", "setting": "[3]; oral (i.g.) 14 mg/kg, rats", "value": 15, "unit": "min"}, {"measurement": "half-life", "setting": "[3]; po, oral (i.g.) 14 mg/kg, rats, read-out: T1/2z (oral elimination half-life)", "value": 111, "unit": "min"}, {"measurement": "half-life", "setting": "[3]; po, oral, as restated in Discussion, read-out: half-life (converted)", "value": 111, "unit": "min"}]}
